Experimental data: US8202909B2, “Method for treating central nervous system disorders” (Sucampo AG, priority 2005, dated 2012)
Marks after values point to notes of the source that are not given here.

Legend:
[1] = test system: Human microvascular endothelial cells (adult) (HMVEC-AD); experiment: Recovery of ATP level after nitrogen atmosphere (luciferin-luciferase assay); format: cell-based; conditions: 5 nM, after 30 minutes nitrogen atmosphere, compared to cells treated with 0.01% DMSO alone; FIG. 2
Method: FIG. 2 is a graph showing the effect of Compound A on Recovery of ATP Level. Human microvascular endothelial cells (adult) (HMVEC-AD) were grown to confluence. The cells were then treated for 30 minutes with a nitrogen atmosphere and returned to normal oxygen. ATP levels were monitored at the indicated time points using a luciferin-luciferase assay system (ATPlite, Perkin Elmer). ATP levels are given as relative luminescence. N=6 cells at each time point.
Human microvascular endothelial cells (adult) (HMVEC-AD) were grown to confluence. The cells were then treated for 30 minutes with a nitrogen atmosphere and returned to normal oxygen. ATP levels were monitored at the indicated time points using a luciferin-luciferase assay system (ATPlite, Perkin Elmer).

ddY mice [2] = experiment: Persistent time of gasping movements after decapitation in mice, subcutaneous (Example 1); format: in vivo; conditions: for Persistent Time of Gasping Movements: decapitated 30 minutes after administration, Mean ± SE, n=10
Method: (§1) Four-week-old male ddY mice were housed in aluminum cages in an animal room controlled for temperature (24±3° C.), relative humidity (55±10%), ventilation rate (˜12 times/hour) and light-dark cycle (fluorescent lighting: 8:00 to 20:00) for at least 7 days. The animals were allowed free access to pellet diet and tap water from water bottles. Healthy animals without abnormalities in general signs were used in this study.
11-deoxy-13,14-dihydro-15-keto-16,16-difluoro-PGE1 (hereinafter, “Compound A”) was dissolved in a vehicle (physiologic saline containing 0.01% polysorbate 80 and 0.5% ethanol), and was administered subcutaneously to the animals. The control group received an equal amount of the vehicle in the same manner.
(§2) The animals were decapitated at 30 minutes after the administration, and the persistent time of gasping movements was measured.

[3] = test system: Alzheimer's disease model animals; experiment: Morris water maze test in Alzheimer's disease model animals (bilateral ibotenic acid lesions of basal ganglia); format: in vivo, rats
Method: Alzheimer's disease model animals were prepared by bilateral ibotenic acid lesions of basal ganglia in rats. Briefly, rats were anesthetized with pentobarbital sodium and placed in a small animal stereotaxic apparatus. Bilateral infusions of 5 μg/0.5 μL of ibotenic acid into the basal ganglia were made at a rate of 0.1 μL/min via a syringe pump and a stainless steel cannula (outer diameter: 0.5 mm). Stereotaxic coordinates were as follows: −0.8 mm posterior from bregma, 2.6 mm lateral (both sides) from midline, and 7.4 mm depth from the bone surface. Animals in sham group received only anesthesia. Animals were then housed with free access to food and water for the rest of the study.
Compound A was orally administered for 14 days after surgery to the model animals. Control group received the same amount of the vehicle.
Morris water maze test was performed to evaluate the effect of test compound. The water maze was a circular pool (painted gray, 1.48 m in diameter, 0.33 m high). The pool contained water that was maintained at a temperature of 17-18° C. During testing in the water maze, a platform, 12 cm in diameter, was located 2 cm below the water in one of four locations (zone 4) in the pool, approximately 38 cm from the sidewall. A light bulb was placed around the pool as a cue external to the maze. The animals received 2 trials per day from 10 days after the initiation of the administration with Compound A or the vehicle. The rats were trained to locate the hidden escape platform, which remained in a fixed location throughout testing. Trials lasted a maximum of 90 sec. The latency to find the submerged platform was recorded and used as a measure of acquisition of the task. The animals were tested in this way for 4 days (total 8 trials), and then they received a probe trial on the 5th day. […] The time the rat spent searching for the platform in the training quadrant (zone 4): i.e., the previous location of the platform was recorded and used as an index of memory.

ddY mice [4] = experiment: Persistent time of gasping movements after decapitation in mice, oral administration (Example 2); format: in vivo; conditions: for Persistent Time of Gasping Movements: fasted mice, decapitated 30 minutes after administration, Mean ± SE, n=10; for Effect on persistent time of gasping movement after decapitation (in words): oral administration at 100, 300 and 1000 μg/kg
Method: as §1, with “study. The animals were fasted for 20 hours or longer with free access to water before use.” for “study.”
Compound A and 11-deoxy-13,14-dihydro-15-keto-16,16-difluoro-PGE1 methyl ester (hereinafter, “Compound B”) were dissolved in a vehicle (physiologic saline containing 0.01% polysorbate 80 and 0.5% ethanol), and was administered orally to the animals. The control group received an equal amount of the vehicle in the same manner.
as §2

Crj: CD (SD) male rats = experiment: Cerebral infarct volume after transient focal cerebral ischemia (MCA occlusion-reperfusion) in rats; format: in vivo; conditions: for Infarct volume: brain removed 24 hours after MCA occlusion, mean±S.E., n=10
Method: Seven-week-old Crj: CD (SD) male rats were housed in polymethylpentene cages in an animal room controlled for room temperature (22-26° C.), relative humidity (47-60%), ventilation rate (10-20 times/hour) and light-dark cycle (lighting: 7:00 to 19:00) for at least 6 days. The animals were allowed free access to pellet diet and water from water bottles. Animals judged to be in good health were used in this study.
Rats were anesthetized by inhalation of a gas mixture of 2% isoflurane and N2O:O2 (=7:3), stabilized in the supine position, and maintained in the anesthetized state by inhalation of the above gas mixture. The animals were monitored for rectal temperature using a temperature probe during the period of the surgical operation. When a fall in body temperature was observed, an incandescent lamp was used to maintain the temperature at around 37° C. The right common carotid artery, external carotid artery, and internal carotid artery were exposed for occluding the middle cerebral artery (hereafter, MCA). The right common carotid artery and the external carotid artery were ligatured using sutures (5-0), and a 19 mm-long segment of No. 4-0 nylon suture which were precoated with silicone was inserted into the MCA through the bifurcation of the external and internal carotid arteries to occlude the MCA. At 2 hours after the MCA occlusion, the suture was removed and the blood flow in the MCA was restored.
Compound A was dissolved in a vehicle (physiological saline containing 1% polysorbate 80), and was administered intravenously to the animals at a volume of 2 mL/kg immediately after the MCA occlusion-reperfusion and 30 minutes after the MCA occlusion-reperfusion. The control group received an equal volume of the vehicle in the same manner.
At 24 hours after MCA occlusion, the animals were decapitated and the brains were immediately isolated. […] Graphic analysis (Adobe Photoshop™, version 3.0 J; Adobe Systems Incorporated, Color Count 0.3b; K&M Software Corporation) was applied to the photographs, and the infarct area was measured. […]

[5] = test system: Human vascular endothelial cell cultures; experiment: Recovery of transendothelial electrical resistance (TEER) after oxygen deprivation; format: cell-based; conditions: 5 nM with 0.1% DMSO, after 30 minutes oxygen deprivation in nitrogen atmosphere; FIG. 1
Method: FIG. 1 is a graph showing the effect of Compound A on Recovery of Transendothelial Electrical Resistance (TEER). Human vascular endothelial cell cultures were brought to confluence, as measured by transendothelial electrical resistance (TEER). The cell cultures were then deprived of oxygen for 30 minutes by incubation in a nitrogen atmosphere. The cells were then either treated with 0.1% DMSO or with 5 nM Compound A with 0.1% DMSO. Statistical significance is indicated at all data points after drug treatment. N=10 cells.
Human vascular endothelial cell cultures were brought to confluence, as measured by transendothelial electrical resistance (TEER). The cell cultures were then deprived of oxygen for 30 minutes by incubation in a nitrogen atmosphere. The cells were then either treated with 0.1% DMSO or with 5 nM Compound A with 0.1% DMSO final.

ddY mice [6] = experiment: Persistent time of gasping movements after decapitation in mice, subcutaneous (Example 3); format: in vivo; conditions: 300 μg/kg s.c.
Method: as §1
11-deoxy-13,14-dihydro-16,16-difluoro-PGE1 (hereinafter, “Compound C”) was dissolved in a vehicle (physiologic saline containing 0.01% polysorbate 80 and 0.5% ethanol), and was administered subcutaneously to the animals. The control group received an equal amount of the vehicle in the same manner.
as §2

| SMILES | Recovery of ATP level (in words) [1] | Persistent Time of Gasping Movements (ddY mice [2]; 10 μg/kg s.c.) | Persistent Time of Gasping Movements (ddY mice [2]; 30 μg/kg s.c.) | Persistent Time of Gasping Movements (ddY mice [2]; 100 μg/kg s.c., p<0.05 vs vehicle) | Persistent Time of Gasping Movements (ddY mice [2]; 300 μg/kg s.c., p<0.01 vs vehicle) | Effect on persistent time of gasping movement after decapitation (in words) (ddY mice [2]; 10, 30, 100 and 300 μg/kg s.c.) | Goal latency (8th trial) ([3]; 1 mg/kg orally for 14 days after surgery, mean ± SE, n=10, p<0.01 vs vehicle) | Time spent in zone 4 ([3]; 1 mg/kg orally for 14 days after surgery, probe trial 90 sec, mean ± SE, n=10, p<0.05 vs vehicle) | Effect on deficit in learning and memory (in words) ([3]; orally for 14 days after surgery, Morris water maze) | Persistent Time of Gasping Movements (ddY mice [4]; 100 μg/kg p.o.) | Persistent Time of Gasping Movements (ddY mice [4]; 300 μg/kg p.o.) | Persistent Time of Gasping Movements (ddY mice [4]; 1000 μg/kg p.o.) | Effect on persistent time of gasping movement after decapitation (in words) (ddY mice [4]) | Infarct volume (Crj: CD (SD) male rats; 0.05 mg/kg i.v. immediately after and 30 minutes after MCA occlusion-reperfusion, P<0.05) | Infarct volume (Crj: CD (SD) male rats; 0.5 mg/kg i.v. immediately after and 30 minutes after MCA occlusion-reperfusion, P<0.01) | Effect on cerebral infarct volume after ischemia (in words) (Crj: CD (SD) male rats; 0.05 and 0.5 mg/kg i.v., compared with vehicle group) | Recovery of TEER (in words) [5] | Effect on persistent time of gasping movement after decapitation (in words) (ddY mice [6]) | Persistent Time of Gasping Movements (ddY mice [6]; decapitated 30 minutes after administration, Mean ± SE, n=10, p<0.01 vs vehicle) |
| --- | --- | --- | --- | --- | --- | --- | --- | --- | --- | --- | --- | --- | --- | --- | --- | --- | --- | --- | --- |
| CCCCC(F)(F)C(=O)CCC1CCC(=O)C1CCCCCCC(=O)O (centres unmarked) [Compound A, 11-deoxy-13,14-dihydro-15-keto-16,16-difluoro-PGE1] | ATP levels returned more quickly | 21.7 ± 0.6 s | 22.0 ± 0.4 s | 23.2 ± 0.8 s | 23.6 ± 0.6 s | dose-dependent prolongation | 51.5 ± 13.7 s | 20.8 ± 3.6 s | significant reversals of the deficit in learning and memory | 18.8 ± 0.5 s | 18.9 ± 0.3 s | 20.2 ± 0.6 s | dose-dependent prolongation | 208.2 ± 22.2* mm^3 | 172.9 ± 25.5** mm^3 | significantly reduced the cerebral infarct volume | immediate recovery of TEER | – | – |
| CCCCC(F)(F)C(=O)CCC1CCC(=O)C1CCCCCCC(=O)OC (centres unmarked) [Compound B, 11-deoxy-13,14-dihydro-15-keto-16,16-difluoro-PGE1 methyl ester] | – | – | – | – | – | – | – | – | – | 17.6 ± 0.5 s | 19.1 ± 0.5 s | 19.1 ± 0.4 s | dose-dependent prolongation | – | – | – | – | – | – |
| CCCCC(F)(F)C(O)CCC1CCC(=O)C1CCCCCCC(=O)O (centres unmarked) [Compound C, 11-deoxy-13,14-dihydro-16,16-difluoro-PGE1] | – | – | – | – | – | – | – | – | – | – | – | – | – | – | – | – | – | significant prolongation | 25.2 ± 0.7 s |
